Measurements taken from patent publication US20140228299A1, “PROPHYLACTIC AND THERAPEUTIC AGENT FOR NEUROLOGICAL DISEASES USING LIPOPROTEINS AND PROPHYLACTIC AND THERAPEUTIC METHOD FOR NEUROLOGICAL DISEASES” (National University Corporation Tokyo Medical and Dental …, priority 2011, published 2014).

Test system: glycogen synthase kinase 3β (GSK3β)
Assay: GSK3β phosphorylation level in RGC after glutamic acid treatment (Western blotting)
Format: cell-based, rat
Conditions: cells collected 18 hours after treatment with glutamic acid
Protocol: The apoptosis-like cells were computed by the nucleus staining with Hoechst 33342. […] The retinal glia cells were collected in 18 hours after treatment with glutamic acid, followed by Western blotting in which a rabbit anti-phosphorylated GSK3β (p-GSK3β) antibody and a rabbit anti-GSK3β antibody were used.
The immune blotting used in the above example was carried out in a manner as will be described below. Specifically, the lipoprotein obtained in each of the above examples was dissolved in 62.5 mM Tris-HCl (pH 6.8), 10% glycerol, 2% sodium dodecyl sulfate (SDS) and 5% β-mercaptoethanol (a sample buffer), and the resulting mixture was boiled for 5 minutes. The resulting protein was separated by electrophoresis using 0.1% SDS-containing polyacrylamide gel and then transferred to a polyvinylidene difluoride membrane. […]

“LP: reconstituted lipoprotein of POPC, cholesterol and recombinant human apolipoprotein E3” was tested, and the “phosphorylation level of GSK3β” value was “recovery”.
